Test systems include SW-620; UACC-62; SK-MEL-2; HCT-15; SK-MEL-5; HT-29; SF-539; IGROV-1; OVCAR-8; CCRF-CEM; CAKI-1; HL-60; SF-295; NCI-H522; EKVX; HCT-116; SF-268; RXF 393.
What all share (assay): DTP human tumour cell line panel, 48 h

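1) Cells in 96-well plates. 2) Compound, 48 h, 5 concentrations. 3) Linear interpolation between surrounding doses. 4) Unreached endpoint = highest concentration. GI50 = concentration required for 50% inhibition of growth.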 The source made the active and inactive calls. No stated cut-off is given here; in the data, active = GI50 up to about 1.1 µM and inactive = higher.

The values that follow come from ChEMBL document CHEMBL1201862, “PubChem BioAssay data set” (2004).

On to `CC12OC3(C)OC(=O)C(c4ccccc4)(O1)C3(C)O2` (stereo not given), for which the GI50 with SW-620 is > 100 µM (inactive); in the assay on UACC-62, > 100 µM (inactive); in the assay on SK-MEL-2 it was > 100 µM (inactive); in the assay on HCT-15, above 100 µM; with SK-MEL-5, > 100 µM (inactive); with HT-29 it was > 100 µM (inactive). Further, the GI50 in the assay on SF-539, in the assay with IGROV-1, in the assay with OVCAR-8, in the assay on CCRF-CEM, in the assay with CAKI-1 and in the assay on HL-60 was > 100 µM (inactive) throughout. For the same compound, the GI50 with SF-295, with NCI-H522, with EKVX, in the assay with HCT-116, in the assay on SF-268 and in the assay on RXF 393 was > 100 µM (inactive) in each case.

`COc1cc(/C=C2\Cc3ccccc3C2=O)cc(OC)c1OC`: the GI50 in the assay with SW-620 is > 100 µM (inactive); in the assay with UACC-62, > 100 µM (inactive); in the assay with SK-MEL-2, > 100 µM (inactive); with HCT-15, above 100 µM; with SK-MEL-5, > 100 µM (inactive); in the assay with HT-29 it was > 100 µM (inactive). For the same compound, the GI50 in the assay on SF-539, in the assay on OVCAR-8, in the assay with CCRF-CEM, with CAKI-1, in the assay with HL-60 and in the assay on SF-295 was > 100 µM (inactive) in each case. In addition, the GI50 in the assay on NCI-H522, in the assay with EKVX, in the assay with HCT-116, with SF-268 and with RXF 393 was > 100 µM (inactive) throughout.

As for `NC(=O)OCC(COc1ccc(Cl)cc1)OC(=O)c1ccccc1Cl` (stereo not given), the GI50 with SW-620 is 19 µM (inactive); in the assay on UACC-62, 17.2 µM (inactive); in the assay with SK-MEL-2, 17.3 µM (inactive); in the assay with HCT-15, 16.4 µM; in the assay on SK-MEL-5, 19.1 µM (inactive); in the assay with HT-29 it was 17.6 µM (inactive). Besides, the GI50 in the assay with SF-539 was 19.1 µM (inactive); in the assay with IGROV-1 it was 25.5 µM (inactive); in the assay with OVCAR-8 it was 23.4 µM (inactive); in the assay with CCRF-CEM, 22.3 µM (inactive); in the assay on CAKI-1, 26.5 µM (inactive); in the assay with HL-60 it was 21.9 µM (inactive). Also, the GI50 with SF-295 was 25.4 µM (inactive); in the assay with NCI-H522 it was 16.9 µM (inactive); in the assay on EKVX it was 25.4 µM (inactive); with HCT-116, 17 µM (inactive); in the assay on SF-268 it was 24.8 µM (inactive); in the assay on RXF 393, 12.6 µM (inactive).

For `[O-][S+]1Nc2c(Cl)cc(Cl)c(Cl)c2S1` (stereo not given), the GI50 with SW-620 was 5.62 µM (inactive); in the assay on UACC-62 it was > 100 µM (inactive); with SK-MEL-2 it was > 100 µM (inactive); in the assay on HCT-15 it was 44.1 µM; with SK-MEL-5 it was 70.6 µM (inactive); in the assay with HT-29, > 100 µM (inactive). For the same compound, the GI50 is > 100 µM (inactive) in the assay on SF-539; > 100 µM (inactive) with IGROV-1; > 100 µM (inactive) with OVCAR-8; 39.3 µM (inactive) with CCRF-CEM; 41.2 µM (inactive) in the assay with CAKI-1; 32.7 µM (inactive) with HL-60. The GI50 is > 100 µM (inactive) in the assay on SF-295; 78.9 µM (inactive) with NCI-H522; > 100 µM (inactive) in the assay with EKVX; > 100 µM (inactive) in the assay on HCT-116; > 100 µM (inactive) with SF-268; > 100 µM (inactive) in the assay with RXF 393.

On to `O=c1[nH]c2cc([N+](=O)[O-])ccc2nc1/C(=N\NO)C(O)c1ccc([N+](=O)[O-])cc1` (stereo not given), for which the GI50 was > 100 µM (inactive) in the assay with SW-620; 59.6 µM (inactive) in the assay on UACC-62; 35.2 µM in the assay with HCT-15; > 100 µM (inactive) with SK-MEL-5; > 100 µM (inactive) in the assay with HT-29; 31.3 µM (inactive) in the assay on SF-539. The GI50 in the assay with IGROV-1 is > 100 µM (inactive); in the assay on OVCAR-8, > 100 µM (inactive); in the assay with CCRF-CEM, 66.2 µM (inactive); in the assay with CAKI-1, 50.2 µM (inactive); in the assay with HL-60, 79.4 µM (inactive); in the assay with SF-295, > 100 µM (inactive). The GI50 in the assay with NCI-H522 is 44.7 µM (inactive); in the assay on HCT-116 it was > 100 µM (inactive); in the assay on SF-268, > 100 µM (inactive); in the assay with RXF 393, > 100 µM (inactive).

Turning to `COCNC(=NC#N)NCOC`, the GI50 in the assay on SW-620 was > 42.9 µM (inactive); in the assay on UACC-62, > 100 µM (inactive); with SK-MEL-2, > 100 µM (inactive); with HCT-15, above 42.9 µM; with SK-MEL-5 it was > 100 µM (inactive); with HT-29, > 100 µM (inactive). In addition, the GI50 is > 100 µM (inactive) in the assay with SF-539; > 100 µM (inactive) with IGROV-1; > 100 µM (inactive) with OVCAR-8; > 100 µM (inactive) with CCRF-CEM; > 100 µM (inactive) with CAKI-1; > 68.9 µM (inactive) in the assay with HL-60. For the same compound, the GI50 with SF-295 is > 100 µM (inactive); in the assay with NCI-H522 it was > 100 µM (inactive); in the assay with EKVX, > 100 µM (inactive); in the assay on HCT-116, > 65.9 µM (inactive); with SF-268, > 100 µM (inactive); with RXF 393, > 42 µM (inactive).

For the compound `CC12CCC3(OCCO3)C(OC(=O)c3ccccc3)=C1CCC21OCCO1` (stereo not given), the GI50 in the assay with SW-620 is > 100 µM (inactive); in the assay with UACC-62 it was > 100 µM (inactive); in the assay on HCT-15, above 100 µM; in the assay with SK-MEL-5, > 100 µM (inactive); in the assay with HT-29, > 100 µM (inactive); in the assay on SF-539 it was > 100 µM (inactive). Besides, the GI50 with IGROV-1, in the assay with OVCAR-8, in the assay on CCRF-CEM, in the assay with CAKI-1, in the assay with HL-60 and with SF-295 was > 100 µM (inactive) each time. For the same compound, the GI50 in the assay on NCI-H522, in the assay on EKVX, in the assay on HCT-116, with SF-268 and in the assay with RXF 393 was > 100 µM (inactive) throughout.

In the case of `CC(C(=O)c1ccc(Cl)cc1)C1OC(=O)C(Cl)=C1Cl` (stereo not given), the GI50 with SW-620 was 34.5 µM (inactive); in the assay on UACC-62, 19.7 µM (inactive); with SK-MEL-2, 23.2 µM (inactive); in the assay on HCT-15, 21.5 µM; in the assay with SK-MEL-5, 37.9 µM (inactive); with HT-29 it was 31.6 µM (inactive). For the same compound, the GI50 with SF-539 is 27.6 µM (inactive); in the assay on IGROV-1 it was 29.3 µM (inactive); in the assay on OVCAR-8, 32.5 µM (inactive); in the assay with CCRF-CEM, 19 µM (inactive); in the assay with CAKI-1 it was > 10 µM (inactive); in the assay on HL-60 it was 19 µM (inactive). For the same compound, the GI50 with SF-295 was > 100 µM (inactive); in the assay on NCI-H522, 18.9 µM (inactive); with EKVX, 39.4 µM (inactive); in the assay with SF-268, 30.3 µM (inactive); in the assay with RXF 393, 19.7 µM (inactive).

For the compound `O=C(O)CCSC(=O)Nc1ccccc1F`, the GI50 in the assay with SW-620 is > 100 µM (inactive); with SK-MEL-2, > 100 µM (inactive); in the assay on HCT-15, above 100 µM; in the assay on HT-29 it was > 100 µM (inactive); with SF-539, > 100 µM (inactive); with CCRF-CEM it was > 100 µM (inactive). Moreover, the GI50 in the assay on CAKI-1, in the assay on HL-60, in the assay on NCI-H522, in the assay on EKVX, with HCT-116 and in the assay with SF-268 was > 100 µM (inactive) each time. Besides, the GI50 in the assay on RXF 393 was > 100 µM (inactive).

Consider `O=C(CC(=O)c1cccc([N+](=O)[O-])c1)C(=O)Nc1nc([N+](=O)[O-])cs1`, for which the GI50 in the assay with SW-620 is > 100 µM (inactive); in the assay with UACC-62, > 100 µM (inactive); in the assay with SK-MEL-2 it was > 100 µM (inactive); in the assay with HCT-15, 79.6 µM; in the assay on SK-MEL-5, > 100 µM (inactive); in the assay with HT-29, > 100 µM (inactive). The GI50 is > 100 µM (inactive) in the assay with SF-539; > 100 µM (inactive) with IGROV-1; > 100 µM (inactive) in the assay with OVCAR-8; 47.8 µM (inactive) with CCRF-CEM; 83.8 µM (inactive) in the assay with CAKI-1; > 100 µM (inactive) in the assay with HL-60. The GI50 in the assay with SF-295 was > 100 µM (inactive); in the assay on NCI-H522 it was 33.3 µM (inactive); in the assay with EKVX, > 100 µM (inactive); in the assay on HCT-116, > 100 µM (inactive); with SF-268 it was > 100 µM (inactive); in the assay on RXF 393 it was > 100 µM (inactive).

Regarding `Cc1ccc2oc(=O)cc(CC(=O)O)c2c1`, the GI50 with SW-620 was > 100 µM (inactive); in the assay on UACC-62 it was > 100 µM (inactive); in the assay on SK-MEL-2 it was > 100 µM (inactive); with HCT-15, above 100 µM; in the assay with SK-MEL-5, > 100 µM (inactive); with HT-29, > 100 µM (inactive). Besides, the GI50 in the assay on SF-539, in the assay on IGROV-1, in the assay on OVCAR-8, in the assay on CCRF-CEM, in the assay with CAKI-1 and in the assay on HL-60 was > 100 µM (inactive) in each case. The GI50 in the assay on SF-295, in the assay on NCI-H522, with EKVX, with HCT-116, in the assay with SF-268 and in the assay with RXF 393 was > 100 µM (inactive) each time.

On to `CC(Nc1ccc(S(=O)(=O)NC(=N)N)cc1)c1c2ccccc2nc2ccccc12` (stereo not given), for which the GI50 is 41.3 µM (inactive) in the assay on SW-620; > 10 µM (inactive) in the assay on UACC-62; 22.5 µM (inactive) in the assay on SK-MEL-2; 29.2 µM in the assay with HCT-15; 35.4 µM (inactive) in the assay on HT-29; 22.9 µM (inactive) in the assay with SF-539. For the same compound, the GI50 was 46.5 µM (inactive) in the assay with IGROV-1; 23.9 µM (inactive) in the assay with OVCAR-8; 19.3 µM (inactive) in the assay on CCRF-CEM; 19 µM (inactive) with CAKI-1; 14.5 µM (inactive) in the assay with HL-60; 35.2 µM (inactive) in the assay with SF-295. Besides, the GI50 in the assay on NCI-H522 is 15.1 µM (inactive); in the assay on EKVX it was 25.5 µM (inactive); in the assay on HCT-116, > 10 µM (inactive); with SF-268 it was 31 µM (inactive); in the assay on RXF 393, 26.9 µM (inactive).
